Test results taken from patent US20120237446A1, “Compounds for binding and imaging amyloid plaques and their use” (BAYER PHARMA AKTIENGESELLSCHAFT, priority 2005, published 2012).

Experiments:
[1] = target: T1, human AD brain homogenate (ADH) (Homo sapiens, UniProt P05067); assay: Competition binding assay with a tritiated amyloid ligand using brain homogenate from AD patients; conditions: competition with 10 nM tritiated amyloid ligand, 100 μg/mL AD frontal cortex homogenate, PBS 0.1% BSA, 3 h, room temperature
T1 construct: from tissue; host or cells: frontal cortex (grey and white matter) of AD patients, homogenised in PBS
Experimental: A competition assay with a tritiated amyloid ligand was performed in 96-well plates (Greiner bio-one; Cat. 651201; Lot. 06260130) using brain homogenate from AD patients. Homogenates were prepared by homogenizing (Ultra-Turrax, setting 2, 30 s, 24000 rpm) dissected frontal cortex containing grey matter and white matter from AD patients in phosphate buffered saline (PBS, pH 7.4). The homogenate with a concentration of 100 mg wet tissue/mL was divided into aliquots of 300 μL and stored at −80° C. Varying concentrations of the unlabeled test substances were incubated with 100 μg/mL homogenate and 10 nM of the tritiated ligand in PBS, 0.1% BSA (final volume 200 μL) for 3 h at room temperature. Subsequently the binding mixture was filtered through Whatman GF/B filters (wetted with PBS, 0.1% BSA) using a Filtermate 196 harvester (Packard). Filters were then washed twice with PBS, 0.1% BSA and 40 μL scintillator was added to each well before the bound radioactivity was measured in a TopCount devise (Perkin Elmer). Non-specific binding was assessed by adding an excess of the reference ligand to the reaction mixture. Finally IC50 values were calculated with the help of appropriate analysis software.

amyloid beta plaques = target: T2, amyloid beta plaques (Homo sapiens, UniProt P05067); assay: Autoradiographical analysis of binding to human brain sections; conditions: cortex sections of AD patients; controls from HC and FTD patients; blocking with excess of cold compound
T2 construct: Alzheimer's disease patients (AD) with amyloid beta plaques; from tissue; host or cells: fresh frozen and paraffin embedded frontal lobe sections of AD patients
Experimental: FIG. 4 Autoradiographical analysis of binding of compound 28 to brain sections from cortex of Alzheimer's disease patients (AD) with amyloid beta plaques. Control sections without amyloid beta pathology stem from healthy volunteers (HC) and fronto-temporal dementia (FTD) patients. Blocking of specific signals was performed with an excess of cold compound. […] Fresh frozen as well as paraffin embedded sections of the frontal lobe from Alzheimer's dementia patients, frontotemporal dementia patients and age matched controls were used for the study. Frozen sections, sliced at 18 μm thickness on a cryostate (Leica, Germany) and paraffin sections, sliced on a sliding microtom (Leica) at a thickness of 6 μm, were mounted onto glass slides (Superfrost Plus, Fa. Menzel, Braunschweig Germany). Frozen sections were allowed to adhere to the slides for several nights at −20° C. The paraffin sections were deparaffinized using routine histological methods. For binding studies sections were incubated with the labeled test compound at 10-20 Bq/μL diluted in 25 mM Hepes buffer, pH 7.4, 0.1% BSA (200-300 μL/slide) for 1.5 h. in a humidified chamber. For blocking experiments an excess of the unlabeled test substance was added to the incubation mixture. […] The air-dried sections were exposed to imaging plates and signals were detected by a phosphoimager device (Fuji BAS5000).

[2] = Biodistribution (brain uptake and wash-out) in mice; type: in vivo, male NMRI mice
Experimental: Biodistribution and excretion studies were performed in male NMRI mice (body weight app. 30 g; 3 animals per time point). The animals were kept under normal laboratory conditions at a temperature of 22±2° C. and a dark/light rhythm of 12 h. Food and water were provided ad libitium. During an acclimation period of at least 3 days before the beginning of the study animals were clinically examined to ascertain the absence of abnormal clinical signs.
At 2 min, 5 min, 30 min, 1 h, 4 h post intravenous injection via the tail vein of ca. 185 kBq of the test compound, urine and feces were quantitatively collected. At the same time points, animals were sacrificed by decapitation under isoflurane anaesthesia and organs and tissues of interest were removed for the determination of radioactivity using a gamma-counter. For analysis the decay corrected percentage of the injected dose per tissue weight (% ID/g±standard deviation) was calculated.

T1 sequence (P05067 672-713 limits assumed): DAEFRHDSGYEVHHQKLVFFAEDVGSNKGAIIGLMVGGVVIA
T2 sequence (P05067 672-713 limits assumed): as above

Work on `O=C(C=CNc1ccc(OCF)cc1)c1ccccc1` (mixture of isomers) [Compound 1, (E/Z)-3-{[4-(Fluoromethoxy)phenyl]amino}-1-phenylprop-2-en-1-one] yielded an IC50 [1] of 9 nM.
In the case of `COc1ccc(NC=CC(=O)c2ccc(F)nc2)cc1` (mixture of isomers) [Compound 11, (E/Z)-1-(6-Fluoropyridin-3-yl)-3-[(4-methoxyphenyl)amino]prop-2-en-1-one], the IC50 [1] is reported as 28 nM.
Molecule `CN(C)c1ccc(NC=CC(=O)c2ccc(F)c(C(F)(F)F)c2)cc1` (mixture of isomers) [Compound 7, (E/Z)-3-{[4-(Dimethylamino)phenyl]amino}-1-[4-fluoro-3-(trifluoromethyl)phenyl]prop-2-en-1-one] has an IC50 [1] of 258 nM.
Work on `O=C(C=CNc1ccc(OCCF)cc1)c1ccccc1` (mixture of isomers) [Compound 2, (E/Z)-3-{[4-(2-Fluoroethoxy)phenyl]amino}-1-phenylprop-2-en-1-one] yielded an IC50 [1] of 17 nM.
For `CN(C)c1ccc(NC=CC(=O)c2ccc(F)nc2)cc1` (mixture of isomers) [Compound 10, (E/Z)-3-{[4-(Dimethylamino)phenyl]amino}-1-(6-fluoropyridin-3-yl)prop-2-en-1-one], the IC50 [1] was 4 nM.
For `O=C(/C=C\Nc1ccc(OCCCF)cc1)c1ccccc1` [Compound 4, (Z)-3-{[4-(3-Fluoropropoxy)phenyl]amino}-1-phenylprop-2-en-1-one], the IC50 [1] was 18 nM.
`COc1ccc(NC=CC(=O)c2ccc(F)cc2)cc1` (mixture of isomers) [Compound 5, (E/Z)-1-(4-Fluorophenyl)-3-[(4-methoxyphenyl)amino]prop-2-en-1-one] gave an IC50 [1] of 400 nM.
`O=C(C=CNc1ccc(OCCF)cc1)c1ccc(Br)cc1` (mixture of isomers) [Compound 3, (E/Z)-1-(4-Bromophenyl)-3-{[4-(2-fluoroethoxy)phenyl]amino}prop-2-en-1-one] showed an IC50 [1] of 13 nM.
In the case of `CN(C)c1ccc(NC=CC(=O)c2ccc([18F])nc2)cc1` (mixture of isomers) [Compound 28, (E/Z)-3-{[4-(Dimethylamino)phenyl]amino}-1-(6-[^18F]-fluoropyridin-3-yl)prop-2-en-1-one], the “Autoradiographic binding to brain sections (in words)” value (amyloid beta plaques) is reported as “plaque-specific signals”, the “Brain uptake and elimination of the radioactive background signal from the brain (in words)” value ([2]; healthy mouse brain, devoid of plaques) is reported as “advantageous rapid elimination of the radioactive background signal from the brain” and the “Brain uptake at 2 min” value ([2]; mice, 2 min after intravenous injection, [18F] signal, healthy brain) is reported as 7.66 % ID/g. The “Brain uptake at 30 min” value ([2]; mice, 30 min after intravenous injection, [18F] signal, healthy brain) was 0.78 % ID/g and the “Brain wash-out ratio [% ID/g at 2 min]/[% ID/g at 30 min]” value ([2]; mice, intravenous injection, healthy brain) was 9.8.
`O=C(C=CNc1ccc(F)cc1)c1ccccc1` (mixture of isomers) [Compound 12, (E/Z)-3-[(4-Fluorophenyl)amino]-1-phenylprop-2-en-1-one] gave an IC50 [1] of 26 nM.
`O=C(C=CNc1ccc(OCCF)cc1)c1ccc(-c2ccccc2)cc1` (mixture of isomers) [Compound 14, (E/Z)-1-Biphenyl-4-yl-3-{[4-(2-fluoroethoxy)phenyl]amino}prop-2-en-1-one] gave an IC50 [1] of 140 nM.
`O=C(C=CNc1ccc(F)c(Br)c1)c1ccccc1` (mixture of isomers) [Compound 13, (E/Z)-3-[(3-Bromo-4-fluorophenyl)amino]-1-phenylprop-2-en-1-one] gave an IC50 [1] of 46 nM.
With `CN(C)c1ccc(NC=CC(=O)c2ccc(F)cc2)cc1` (mixture of isomers) [Compound 6, (E/Z)-3-{[4-(Dimethylamino)phenyl]amino}-1-(4-fluorophenyl)prop-2-en-1-one] the IC50 [1] was 5 nM.
